Assay results published in the supplement of paper PMC10307832.

Columns and labels:
Assay in all cases: relative viability (nuclei count vs DMSO), 5 days (fraction); higher = more cells survive
NCI-H1666 = tested on: NCI-H1666
Method in brief: (§1)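 Nuclei were stained with Hoechst during a one-step fixation (final 0.05% Triton X-100, 1% formaldehyde, 1 ug/ml Hoechst) carried out 5 days after dosing, then counted on 4× images. The cells, lung cancer lines in 1536-well plates, had been dosed by pin tool the day after seeding with one drug alone or a fixed anchor-drug dose plus five library-drug doses (not always all listed) in √10 steps. Relative viability is the nuclei count in treated wells divided by that in vehicle wells, and each value is the median of duplicate plates.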

NCI-H2170 = tested on: NCI-H2170
Method in brief: as §1

NCI-H1437 = tested on: NCI-H1437
Method in brief: as §1

LK-2 = tested on: LK-2
Method in brief: as §1

BEN = tested on: BEN
Method in brief: as §1

NCI-H1993 = tested on: NCI-H1993
Method in brief: as §1

EKVX = tested on: EKVX
Method in brief: as §1

PC-14 = tested on: PC-14
Method in brief: as §1

SK-MES-1 = tested on: SK-MES-1
Method in brief: as §1

RERF-LC-KJ = tested on: RERF-LC-KJ
Method in brief: as §1

NCI-H661 = tested on: NCI-H661
Method in brief: as §1

NCI-H727 = tested on: NCI-H727
Method in brief: as §1

LCLC-103H = tested on: LCLC-103H
Method in brief: as §1

LOU-NH91 = tested on: LOU-NH91
Method in brief: as §1

ChaGo-K-1 = tested on: ChaGo-K-1
Method in brief: as §1

NCI-H441 = tested on: NCI-H441
Method in brief: as §1

LXF-289 = tested on: LXF-289
Method in brief: as §1

NCI-H1944 = tested on: NCI-H1944
Method in brief: as §1

NCI-H647 = tested on: NCI-H647
Method in brief: as §1

NCI-H2126 = tested on: NCI-H2126
Method in brief: as §1

NCI-H1355 = tested on: NCI-H1355
Method in brief: as §1

HOP-62 = tested on: HOP-62
Method in brief: as §1

HCC-827 = tested on: HCC-827
Method in brief: as §1

## CCNC(=O)c1noc(-c2cc(C(C)C)c(O)cc2O)c1-c1ccc(CN2CCOCC2)cc1 [Luminespib] + O=C(CCCCCCC(=O)Nc1ccccc1)NO [Vorinostat] (partner 1 µM)
NCI-H1666; first compound 0.002 µM
  relative viability: 0.983
NCI-H1666; first compound 0.006325 µM
  relative viability: 0.994
NCI-H1666; first compound 0.02 µM
  relative viability: 1.19
NCI-H1666; first compound 0.06325 µM
  relative viability: 1.03
NCI-H1666; first compound 0.2 µM
  relative viability: 0.909
NCI-H2170; first compound 0.002 µM
  relative viability: 0.746
NCI-H2170; first compound 0.006325 µM
  relative viability: 0.698
NCI-H2170; first compound 0.06325 µM
  relative viability: 0.572
NCI-H2170; first compound 0.2 µM
  relative viability: 0.135
NCI-H1437; first compound 0.002 µM
  relative viability: 0.92
NCI-H1437; first compound 0.006325 µM
  relative viability: 0.828
NCI-H1437; first compound 0.02 µM
  relative viability: 0.82
NCI-H1437; first compound 0.06325 µM
  relative viability: 0.601
NCI-H1437; first compound 0.2 µM
  relative viability: 0.218
LK-2; first compound 0.002 µM
  relative viability: 0.305
LK-2; first compound 0.006325 µM
  relative viability: 0.374
LK-2; first compound 0.02 µM
  relative viability: 0.201
LK-2; first compound 0.06325 µM
  relative viability: 0.146
LK-2; first compound 0.2 µM
  relative viability: 0.163
BEN; first compound 0.002 µM
  relative viability: 0.608
BEN; first compound 0.006325 µM
  relative viability: 0.546
BEN; first compound 0.02 µM
  relative viability: 0.358
BEN; first compound 0.06325 µM
  relative viability: 0.525
BEN; first compound 0.2 µM
  relative viability: 0.36
NCI-H1993; first compound 0.002 µM
  relative viability: 0.893
NCI-H1993; first compound 0.006325 µM
  relative viability: 0.793
NCI-H1993; first compound 0.02 µM
  relative viability: 0.552
NCI-H1993; first compound 0.06325 µM
  relative viability: 0.246
NCI-H1993; first compound 0.2 µM
  relative viability: 0.238
EKVX; first compound 0.002 µM
  relative viability: 0.466
EKVX; first compound 0.006325 µM
  relative viability: 0.684
EKVX; first compound 0.02 µM
  relative viability: 0.47
EKVX; first compound 0.06325 µM
  relative viability: 0.669
EKVX; first compound 0.2 µM
  relative viability: 0.572
PC-14; first compound 0.002 µM
  relative viability: 0.787
PC-14; first compound 0.006325 µM
  relative viability: 0.639
PC-14; first compound 0.02 µM
  relative viability: 0.121
PC-14; first compound 0.06325 µM
  relative viability: 0.0465
PC-14; first compound 0.2 µM
  relative viability: 0.0692
SK-MES-1; first compound 0.002 µM
  relative viability: 1.14
SK-MES-1; first compound 0.006325 µM
  relative viability: 0.931
SK-MES-1; first compound 0.02 µM
  relative viability: 1.04
SK-MES-1; first compound 0.06325 µM
  relative viability: 0.174
SK-MES-1; first compound 0.2 µM
  relative viability: 0.153
RERF-LC-KJ; first compound 0.002 µM
  relative viability: 0.624
RERF-LC-KJ; first compound 0.006325 µM
  relative viability: 0.707
RERF-LC-KJ; first compound 0.02 µM
  relative viability: 0.473
RERF-LC-KJ; first compound 0.06325 µM
  relative viability: 0.467
RERF-LC-KJ; first compound 0.2 µM
  relative viability: 0.216
NCI-H661; first compound 0.002 µM
  relative viability: 0.777
NCI-H661; first compound 0.006325 µM
  relative viability: 0.803
NCI-H661; first compound 0.02 µM
  relative viability: 0.759
NCI-H661; first compound 0.06325 µM
  relative viability: 0.345
NCI-H661; first compound 0.2 µM
  relative viability: 0.306
NCI-H727; first compound 0.002 µM
  relative viability: 1.1
NCI-H727; first compound 0.006325 µM
  relative viability: 1.21
NCI-H727; first compound 0.02 µM
  relative viability: 0.832
NCI-H727; first compound 0.06325 µM
  relative viability: 1.04
NCI-H727; first compound 0.2 µM
  relative viability: 0.31
LCLC-103H; first compound 0.002 µM
  relative viability: 0.616
LCLC-103H; first compound 0.006325 µM
  relative viability: 0.718
LCLC-103H; first compound 0.02 µM
  relative viability: 0.661
LCLC-103H; first compound 0.06325 µM
  relative viability: 0.75
LCLC-103H; first compound 0.2 µM
  relative viability: 0.25
LOU-NH91; first compound 0.002 µM
  relative viability: 0.935
LOU-NH91; first compound 0.006325 µM
  relative viability: 0.872
LOU-NH91; first compound 0.02 µM
  relative viability: 0.647
LOU-NH91; first compound 0.06325 µM
  relative viability: 0.335
LOU-NH91; first compound 0.2 µM
  relative viability: 0.377
ChaGo-K-1; first compound 0.002 µM
  relative viability: 0.678
ChaGo-K-1; first compound 0.006325 µM
  relative viability: 0.728
ChaGo-K-1; first compound 0.02 µM
  relative viability: 0.529
ChaGo-K-1; first compound 0.06325 µM
  relative viability: 0.523
ChaGo-K-1; first compound 0.2 µM
  relative viability: 0.23
NCI-H441; first compound 0.002 µM
  relative viability: 0.784
NCI-H441; first compound 0.006325 µM
  relative viability: 0.823
NCI-H441; first compound 0.02 µM
  relative viability: 0.785
NCI-H441; first compound 0.06325 µM
  relative viability: 0.233
NCI-H441; first compound 0.2 µM
  relative viability: 0.11
LXF-289; first compound 0.002 µM
  relative viability: 0.69
LXF-289; first compound 0.006325 µM
  relative viability: 0.707
LXF-289; first compound 0.02 µM
  relative viability: 1
LXF-289; first compound 0.06325 µM
  relative viability: 0.518
LXF-289; first compound 0.2 µM
  relative viability: 0.147
NCI-H1944; first compound 0.002 µM
  relative viability: 0.549
NCI-H1944; first compound 0.006325 µM
  relative viability: 0.571
NCI-H1944; first compound 0.02 µM
  relative viability: 0.354
NCI-H1944; first compound 0.06325 µM
  relative viability: 0.404
NCI-H1944; first compound 0.2 µM
  relative viability: 0.153
NCI-H647; first compound 0.002 µM
  relative viability: 0.584
NCI-H647; first compound 0.006325 µM
  relative viability: 0.381
NCI-H647; first compound 0.02 µM
  relative viability: 0.646
NCI-H647; first compound 0.06325 µM
  relative viability: 0.11
NCI-H647; first compound 0.2 µM
  relative viability: 0.0869
NCI-H2126; first compound 0.002 µM
  relative viability: 0.743
NCI-H2126; first compound 0.006325 µM
  relative viability: 0.765
NCI-H2126; first compound 0.06325 µM
  relative viability: 0.468
NCI-H2126; first compound 0.2 µM
  relative viability: 0.192
NCI-H1355; first compound 0.002 µM
  relative viability: 0.581
NCI-H1355; first compound 0.006325 µM
  relative viability: 0.641
NCI-H1355; first compound 0.02 µM
  relative viability: 0.38
NCI-H1355; first compound 0.06325 µM
  relative viability: 0.398
NCI-H1355; first compound 0.2 µM
  relative viability: 0.12
HOP-62; first compound 0.002 µM
  relative viability: 0.527
HOP-62; first compound 0.006325 µM
  relative viability: 0.555
HOP-62; first compound 0.02 µM
  relative viability: 0.454
HOP-62; first compound 0.06325 µM
  relative viability: 0.18
HOP-62; first compound 0.2 µM
  relative viability: 0.0867
HCC-827; first compound 0.002 µM
  relative viability: 0.817
HCC-827; first compound 0.006325 µM
  relative viability: 0.884
HCC-827; first compound 0.02 µM
  relative viability: 0.45
HCC-827; first compound 0.06325 µM
  relative viability: 0.797
HCC-827; first compound 0.2 µM
  relative viability: 0.144
